Experimental data as given in patent US20090202645A1, “INTRASYNOVIAL FORMULATIONS OF STANOZOLOL” (ACME DRUGS S.R.L., priority 2008, published 2009).

Columns and labels:
[1] = test system: cartilage tissue; assay: effect on tissue, especially cartilage tissue; conditions: unlike the majority of NSAIDs and anti-inflammatory corticosteroids
[2] = test system: healthy skin fibroblast; conditions: cited from earlier work
[3] = solubility in water; format: physicochemical; conditions: crystalline substance
Excerpt: The formulations according to the invention of stanozolol in an aqueous carrier are therefore aqueous suspensions, and it is necessary to prevent the suspended crystals of the drug from causing mechanical lesions such as abrasions and erosions despite the pressures and friction generated by the movement of the joint on the surfaces of the cartilage and synovial membrane.

[4] = persistence in the joint after a single intrasynovial injection; format: in vivo
Excerpt: A single intrasynovial injection of said formulations allows the stanozolol to be brought up to and maintained at pharmacologically active concentrations in the joint for 6-7 days, a period which is long enough to produce evident clinical benefits and fully compatible with long-term treatments.

[5] = test system: synovial fibroblasts from rheumatoid synovial tissue; conditions: cited from earlier work
[6] = persistence in synovial fluid of the typical intrasynovial preparation; format: in vivo; conditions: micronised stanozolol 5 mg, water for injectables to 1 ml, horses and humans
Protocol: An example of the formulation of a typical preparation containing stanozolol administrable by the intrasynovial route to horses and humans, which remains in the synovial fluid for 5-7 days, is set out below:
Active ingredient: micronised stanozolol (having a prevalent population of particles with a diameter of less than 20 μm) 5 mg;
Water for injectables q.s. to 1 ml.

C[C@]12Cc3c[nH]nc3C[C@@H]1CC[C@@H]1[C@@H]2CC[C@@]2(C)[C@H]1CC[C@]2(C)O [stanozolol]
degeneration of tissue, especially cartilage tissue [1]: does not cause the degeneration of tissue, especially cartilage tissue, but regenerates it
production of PGE2 [2]: induces the production
production of collagenase [2]: induces the production
solubility in water [3]: insoluble in water
time stanozolol is maintained at pharmacologically active concentrations in the joint [4]: 6-7 days
effect on synovial fibroblasts [5]: no effect
time remaining in the synovial fluid [6]: 5 to 7 days
